# Assay: biochemical assays (not further specified)
# Conditions: compound coupled from the second-peak acid 5-4 (RT=21 min)
smiles,measurement,value
"O=C(NCc1cc(C(F)(F)F)ccn1)[C@](O)(c1ccccc1)C(F)(F)C(F)(F)F [Example 7, (2R)-3,3,4,4,4-Pentafluoro-2-hydroxy-2-phenyl-N-(4-trifluoromethyl-pyridin-2-ylmethyl)-butyramide]",activity in the biochemical assays,active
